Data: article PMC5341405, “Lapachol, a compound targeting pyrimidine metabolism, ameliorates experimental autoimmune arthritis” (Arthritis Research & Therapy, 2017)
Read-outs that look alike come from different tables or passages of the source.

Assays:
[1] = Pharmacokinetics after i.v. administration; type: in vivo, Wistar rats; conditions: for Vd: read-out: Vdss
Procedure: (§1) For administration to Wistar rats, LAP was dissolved in DMSO:Tween 80:glucose 5% in a proportion of 15:5:80 (v/v/v), resulting in a solution of 1 mg/ml (for intravenous (i.v.) administration) and another of 5 mg/ml (for oral administration). LAP was administered to rats as an i.v. bolus dose at 2 mg/kg (n = 7) and at two oral doses of 10 (n = 8) and 25 mg/kg (n = 6). LAP salt was administered as i.v. (2 mg/kg, n = 6) and oral doses (30 mg/kg equivalent to 27.5 mg/kg of LAP, n = 8). The i.v. doses were injected into the lateral tail vein, and oral doses were given by gavage. The doses were chosen based on previous toxicological and pharmacodynamic studies. At predetermined time points (30 min before dosing and at 0.08, 0.25, 0.5, 1, 2, 4, 6, 8, 12, and 24 h) after LAP i.v. administration, blood samples (200–250 μl) were withdrawn into heparinized tubes via puncture of the lateral tail vein, opposite to the vein used for drug dosing. The same procedure was carried out after oral administration of LAP, with blood sampling at 0.25, 0.5, 1, 1.5, 2, 3, 6, 12, 24, and 30 h. After LAP sodium salt i.v. and oral dosing, blood samples were harvested up to 10 and 12 h, respectively. Plasma was obtained by centrifugation of blood samples (6800 × g, at 4 °C for 10 min) and stored at –80 °C until analysis by UPLC-MS/MS.
(§2) LAP and LAP sodium salt pharmacokinetic parameters after i.v. and oral administration were determined from individual plasma profiles by a noncompartmental approach (NCA). The peak plasma concentration (Cmax) and the time of maximum concentration (Tmax) were obtained by visual inspection of the data from the plasma concentration–time curve after oral dosing. Pharmacokinetic parameters such an elimination rate constant (λ), area under the curve (AUC0–∞), clearance (CLtot), half-life (t1/2), volume of distribution (Vdss), mean residence time (MRT), and bioavailability (Fabs) were determined using classical equations. The compartmental analyses were performed using SCIENTIST v.2.0.1 software (MicroMath®, USA). One- and two-compartment models with or without weighting schemes were evaluated. The best model to fit the data was chosen based on the random distribution of residuals, the correlation coefficient, and the model selection criterion (MSC) given by the software.
(§3) The individual plasma profiles of LAP and LAP sodium salt after i.v. administration were best described by a two-compartmental open model. Plasma profiles after oral administration with two different doses of LAP and one dose of LAP sodium salt were best described by the one-compartmental model.
(§4) LAP concentration in plasma samples was determined by a validated (FDA, US Food and Drug Administration, 2001) UPLC-MS/MS method. Analyses were run on an Acquity UPLC BEH (Waters Acquity™) C18 column (2.1 × 50 mm, 1.7 μm particle size), with a flow of 300 μl/min at 35 °C. A gradient constituted of water (A) and acetonitrile (B) acidified with 0.1% acetic acid was used as follows: 0 min (90% A), 1 min (75% A), 7 min (50% A), 8.5 min (0% A) and 9.5 min (100% A). For the triple quadrupole, MS parameters were set as follows: capillary voltage (2.20 kV); extractor (3.0 V) source temperature (150 °C), desolvation temperature (300 °C), cone gas flow (50 l/h), and desolvation gas flow (700 l/h). For quantification, a multiple reaction monitoring method (MRM) was applied. For LAP, the transition of m/z 243 > 187 using cone energy of 24 V and collision energy of 19 V was determined as most appropriate for quantification (Calibration curves between 1 and 20,000 ng/ml of LAP, R > 0.99, low quantification limit of 1 ng/ml, and detection limit of 0.1 ng/ml).
(§5) A total of 200 μl cold acetonitrile containing internal standard (2-methyl-amino-lapachol) at 5 μg/ml and 0.05% trifluoroacetic acid was added to 100 μl of plasma and vortexed for 20 s. Precipitated protein was removed by centrifugation (6800 × g at 4 °C for 10 min). […]

[2] = Pharmacokinetics after oral administration; type: in vivo, Wistar rats; conditions: for AUC(0-inf) / k el / Cmax / MRT / Tmax / half-life: Wistar, rat, plasma; for AUC(0-inf): po; for k el: read-out: Ke (converted)
Procedure: as §1, §2, §3, §4, §5

[3] = Wistar, rat, plasma, iv, 2 mg/kg, 2 mg/kg i.v., 2-Comp
[4] = Wistar, rat, plasma, iv, 2 mg/kg, 2 mg/kg i.v., NCA

SMILES: CC(C)=CCC1=C(O)C(=O)c2ccccc2C1=O [LAP, 2-hydroxy-3-(3methyl-2-butenyl)-1,4-naphthoquinone]
- CLtot ([1]; 2 mg/kg i.v., 2-Comp): 0.667 ± 0.167 mL/min/kg
- Vc ([1]; 2 mg/kg i.v., 2-Comp): 0.11 ± 0.03 L/kg
- a ([1]; 2 mg/kg i.v., 2-Comp): 10.0 ± 4.1 µg/mL
- b ([1]; 2 mg/kg i.v., 2-Comp): 8.8 ± 3.1 µg/mL
- t1/2ß ([1]; 2 mg/kg i.v., 2-Comp): 3.7 ± 0.5 h
- t1/2α ([1]; 2 mg/kg i.v., 2-Comp): 0.6 ± 0.4 h
- ß ([1]; 2 mg/kg i.v., 2-Comp): 0.19 ± 0.03 h⁻¹
- α ([1]; 2 mg/kg i.v., 2-Comp): 1.76 ± 1.52 h⁻¹
- CLtot ([1]; 2 mg/kg i.v., NCA): 0.667 ± 0.167 mL/min/kg
- λ ([1]; 2 mg/kg i.v., NCA): 0.18 ± 0.04 h⁻¹
- AUC(0-inf) [1, 3]: 56.4 ± 21.6 µg·h/mL
- Vd [1, 3]: 0.17 ± 0.03 L/kg
- AUC(0-inf) [1, 4]: 56.1 ± 20.1 µg·h/mL
- MRT [1, 4]: 5.3 ± 1.2 h
- Vd [1, 4]: 0.19 ± 0.03 L/kg
- half-life ([1]; Wistar, rat, plasma, iv, 2 mg/kg, 2 mg/kg i.v., NCA, read-out: t1/2 (converted)): 4.1 ± 1.1 h
- linearity of pharmacokinetics ([1]; dose range investigated 2–25 mg/kg (i.v. and oral)): Linear pharmacokinetics
- total clearance ([1]; intravenous administration, rats): 0.67 ± 0.17 mL/min/kg
- Ka ([2]; 10 mg/kg oral LAP, 1-Comp): 2.61 ± 0.85 h⁻¹
- t1/2ß ([2]; 10 mg/kg oral LAP, 1-Comp): 4.2 ± 0.3 h
- Fabs ([2]; 10 mg/kg oral LAP, NCA): 77%
- l ([2]; 10 mg/kg oral LAP, NCA): 0.16 ± 0.01 h⁻¹
- Ka ([2]; 25 mg/kg oral LAP, 1-Comp): 2.93 ± 0.79 h⁻¹
- Vdss ([2]; 25 mg/kg oral LAP, 1-Comp): 0.24 ± 0.04 L/kg
- t1/2ß ([2]; 25 mg/kg oral LAP, 1-Comp): 4.4 ± 0.6 h
- Fabs ([2]; 25 mg/kg oral LAP, NCA): 65%
- l ([2]; 25 mg/kg oral LAP, NCA): 0.19 ± 0.03 h⁻¹
- AUC(0-inf) ([2]; 10 mg/kg, 10 mg/kg oral LAP, 1-Comp): 237 ± 20.2 µg·h/mL
- AUC(0-inf) ([2]; 10 mg/kg, 10 mg/kg oral LAP, NCA): 217 ± 22 µg·h/mL
- AUC(0-inf) ([2]; 25 mg/kg, 25 mg/kg oral LAP, 1-Comp): 434 ± 79.7 µg·h/mL
- AUC(0-inf) ([2]; 25 mg/kg, 25 mg/kg oral LAP, NCA): 449 ± 78.1 µg·h/mL
- k el ([2]; 10 mg/kg oral LAP, 1-Comp): 4.72e-05 s⁻¹
- Cmax ([2]; 10 mg/kg oral LAP, NCA): 31600 ± 3800 ng/mL
- MRT ([2]; 10 mg/kg oral LAP, NCA): 7.2 ± 0.6 h
- Tmax ([2]; 10 mg/kg oral LAP, NCA): 1.2 ± 0.3 h
- half-life ([2]; 10 mg/kg oral LAP, NCA): 3.2 ± 0.2 h
- k el ([2]; 25 mg/kg oral LAP, 1-Comp): 4.44e-05 s⁻¹
- Cmax ([2]; 25 mg/kg oral LAP, NCA): 65600 ± 10600 ng/mL
- MRT ([2]; 25 mg/kg oral LAP, NCA): 7.2 ± 0.7 h
- Tmax ([2]; 25 mg/kg oral LAP, NCA): 1.3 ± 0.4 h
- half-life ([2]; 25 mg/kg oral LAP, NCA): 3.6 ± 0.5 h
